This is an account of results in patent US10125135B2, “Chemical compounds” (AstraZeneca AB, priority 2016, dated 2018).

Structures are written as SMILES. Converted amounts (≈) assume the structure as drawn.

A short description of data set [1]: logD shake flask, 1-octanol/aqueous buffer. Type of data set: physicochemical. Particulars: pH 7.4. An excerpt: The lipophilicity of a drug is an important physical property which may influence many biological and metabolic properties of a compound. The distribution coefficient between 1-octanol and aqueous buffer, Log DO/W, at pH 7.4, is the most commonly used measurement of the lipophilicity of a compound. The current method for measurement of Log DO/W is based on the traditional shake flask technique, but with the modification of measuring compounds in mixtures of ten at a time using UPLC with quantitative mass spectrometry (MS) as a method to measure the relative octanol and aqueous concentrations. […] An additional QC sample Caffeine, with low Log D, are used and randomly placed in all runs. The method has been thoroughly validated against the previous shake flask methodologies.

Data set [2] is described as follows: Thermodynamic solubility, shake-flask. Type of data set: physicochemical. Particulars: thermodynamic from solid; aqueous phosphate buffer pH 7.4, 24 hours at 25° C. The protocol: The thermodynamic solubility of a research compound is measured under standard conditions. It is a shake-flask approach that uses 10 mM DMSO solutions which are supplied from the Compound Managements liquid store and is a high throughput method. The dried compounds are equilibrated in an aqueous phosphate buffer (pH 7.4) for 24 hours at 25° C., the portion with the dissolved compound is then separated from the remains. The solutions are analyzed and quantified using UPLC/MS/MS, QC-samples are incorporated in each assay-run to ensure the quality of the assay.

A short description of data set [3]: Human plasma protein binding, equilibrium dialysis (RED). It counts as in vitro ADME. The following applies: dialysis for 18 hours. The protocol: Human Plasma Protein Binding
The automated equilibrium dialysis assay in human plasma uses the RED (Rapid Equilibrium Dialysis) Device and sample handling. The assay generally runs over two to three days including delivery of results. After dialysis for 18 hours, plasma and buffer samples are prepared for analysis by liquid chromatography and mass spectrometry. Samples are generally tested in singlicates and quantified by LC/MSMS by using a 7-point calibration curve in plasma. The compounds are pooled together in plasma pools up to 10 compounds. Three reference compounds are used in each run, Propranolol, Metoprolol and Warfarin. Warfarin is used as a control in each pool and Propranolol and Metoprolol are placed randomly in each run. An in-house Excel macro is used for preparation of files for the robot and the mass spectrometer and also used for the calculations of fraction unbound (fu %) in plasma.
(In general: In equilibrium dialysis only unbound substance equilibrates across the membrane.)

The target in data set [4] is ERα receptor in MCF-7 human ductal carcinoma breast cell line (Homo sapiens (Human), UniProt P03372). The data set is described as follows: MCF-7 ER down regulation assay (immuno-fluorescence). Particulars: MCF-7 cells; for DC50: 18-22 hours incubation, read-out: ER down regulation IC50 value. Type of data set: cell-based. How it is done:
MCF-7 ER Down Regulation Assay
The ability of compounds to down-regulate Estrogen Receptor (ER) numbers was assessed in a cell based immuno-fluorescence assay using the MCF-7 human ductal carcinoma breast cell line. MCF-7 cells were revived directly from a cryovial (approx 5×10^6 cells) in Assay Medium (phenol red free Dulbecco's Modified Eagle's medium (DMEM) (Sigma D5921) containing 2mM L-Glutamine and 5% (v/v) Charcoal/Dextran treated foetal calf serum. Cells were syringed once using a sterile 18 G×1.5 inch (1.2×40 mm) broad gauge needle and cell density was measured using a Coulter Counter (Beckman). Cells were further diluted in Assay Medium to a density of 3.75×10^4 cells per mL and 40 μL per well added to transparent bottomed, black, tissue culture treated 384 well plates (Costar, No. 3712) using a Thermo Scientific Matrix WellMate or Thermo Multidrop. Following cell seeding, plates were incubated overnight at 37° C., 5% CO2 (Liconic carousel incubator). Test data was generated using the LabCyte Echo™ model 555 compound reformatter which is part of an automated workcell (Integrated Echo 2 workcell). 10 mM compound stock solutions of the test compounds were used to generate a 384 well compound dosing plate (Labcyte P-05525-CV1). […] 40 μΛ of DMSO added to wells in row P on the source plate allow for DMSO normalisation across the dose range. To dose the control wells 40 μL of DMSO was added to row O1 and 40 μL of 100 μM fulvestrant in DMSO was added to row O3 on the compound source plate. […] Compounds were dispensed onto the cell plates with a compound source plate prepared as above producing a 12 pt duplicate 3 μM to 3 pM dose range with 3 fold dilutions and one final 10 fold dilution using the Integrated Echo 2 workcell. […] Cells were fixed at room temperature for 20 mins before being washed two times with 250 μL PBS/Proclin (PBS with a Biocide preservative) using a BioTek platewasher, 40 μL of PBS/Proclin was then added to all wells and the plates stored at 4° C. The fixing method described above was carried out on the Integrated Echo 2 workcell. Immunostaining was performed using an automated AutoElisa workcell. The PBS/Proclin was aspirated from all wells and the cells permeabilised with 40 μL PBS containing 0.5% Tween™ 20 (v/v) for 1 hour at room temperature. The plates were washed three times in 250 μL of PBS/0.05% (v/v) Tween 20 with Proclin (PBST with a Biocide preservative) and then 20 μL of ERα (SP1) Rabbit monoclonal antibody (Thermofisher) 1:1000 in PBS/Tween™/3% (w/v) Bovine Serum Albumin was added. The plates were incubated overnight at 4° C. (Liconic carousel incubator) and then washed three times in 250 μL of PBS/0.05% (v/v) Tween™ 20 with Proclin (PBST). The plates were then incubated with 20 μL/well of a goat anti-rabbit IgG AlexaFluor 594 or goat anti-rabbit AlexaFluor 488 antibody (Molecular Probes) with Hoechst at 1:5000 in PBS/Tween™/3% (w/v) Bovine Serum Albumin for lhour at room temperature. The plates were then washed three times in 250 μL of PBS/0.05% (v/v) Tween™ 20 with Proclin (PBST with a Biocide preservative). 20 μL of PBS was added to each well and the plates covered with a black plate seal and stored at 4° C. before being read. Plates were read using a Cellomics Arrayscan reading the 594 nm (24 hr time point) or 488 nm (5 hr timepoint) fluorescence to measure the ERα receptor level in each well. The mean total intensity was normalized for cell number giving the total intensity per cell.

Data set [5] can be described thus: Human hepatocyte assay (metabolic stability). Type of data set: in vitro ADME. Particulars: human hepatocytes, 37° C., 1.0×10^6 viable cells/mL; read-out: Clint (in vitro intrinsic clearance). How it is done: The metabolic stability of compounds in human hepatocytes was assessed using the following protocol: • 1. Prepare 10 mM stock solutions of compound and control compounds in appropriate solvent (DMSO). Place incubation medium (L-15Medium) in a 37° C. water bath, and allow warming for at least 15 minutes prior to use. • 2. Add 80 μL of acetonitrile to each well of the 96-well deep well plate (quenching plate). • 3. In a new 96-well plate, dilute the 10 mM test compounds and the control compounds to 100 μM by combining 198 μL of acetonitrile and 2 μL of 10 mM stock. • 4. Remove a vial of cryopreserved (less than −150° C.) human hepatocytes (LiverPool™ 10 Donor Human hepatocytes obtained from Celsis IVT. Chicago, Ill. (Product No. S01205)) from storage, ensuring that vials remain at cryogenic temperatures until thawing process ensues. As quickly as possible, thaw the cells by placing the vial in a 37° C. water bath and gently shaking the vials. Vials should remain in water bath until all ice crystals have dissolved and are no longer visible. After thawing is completed, spray vial with 70% ethanol, transfer the vial to a bio-safety cabinet. • 5. Open the vial and pour the contents into the 50 mL conical tube containing thawing medium. Place the 50 mL conical tube into a centrifuge and spin at 100 g for 10 minutes. […] Using Cellometer® Vision, count cells and determine the viable cell density. Cells with poor viability (<80% viability) are not acceptable for use. Dilute cells with incubation medium to a working cell density of 1.0×10^6 viable cells/mL. • 7. Transfer 247.5 μL of hepatocytes into each well of a 96-well cell culture plate. Place the plate on Eppendorf Thermomixer Comfort plate shaker to allow the hepatocytes to warm for 10 minutes. • 8. Add 2.5 μL of 100 μM test compound or control compounds into an incubation well containing cells, mix to achieve a homogenous suspension at 0.5 min, which when achieved, will define the 0.5 min time point. At the 0.5 min time, transfer 20 μL incubated mixture to wells in a “Quenching plate” followed by vortexing. • 9. Incubate the plate at 37° C. at 900 rpm on an Eppendorf Thermomixer Comfort plate shaker. At 5, 15, 30, 45, 60, 80, 100 and 120 min, mix the incubation system and transfer samples of 20 μL incubated mixture at each time point to wells in a separate “Quenching plate” followed by vortexing. • 10. Centrifuge the quenching plates for 20 minutes at 4,000 rpm. 4 different compounds are pooled into one cassette and used for LC/MS/MS analysis.
All calculations are carried out using Microsoft Excel. Peak areas are determined from extracted ion chromatograms. In vitro intrinsic clearance (in vitro Clint, in μL/min/10^6 cells) of parent compound is determined by regression analysis of the Ln percent parent disappearance vs. time curve. The in vitro intrinsic clearance (in vitro Clint, in μL/min/10^6 cells) is determined from the slope value using the following equation and is shown in Table C:
V=incubation volume (0.25 mL);
N=number of hepatocytes per well (0.25×10 ^6 cells).

Chain of ERα receptor in MCF-7 human ductal carcinoma breast cell line (P03372 whole entry): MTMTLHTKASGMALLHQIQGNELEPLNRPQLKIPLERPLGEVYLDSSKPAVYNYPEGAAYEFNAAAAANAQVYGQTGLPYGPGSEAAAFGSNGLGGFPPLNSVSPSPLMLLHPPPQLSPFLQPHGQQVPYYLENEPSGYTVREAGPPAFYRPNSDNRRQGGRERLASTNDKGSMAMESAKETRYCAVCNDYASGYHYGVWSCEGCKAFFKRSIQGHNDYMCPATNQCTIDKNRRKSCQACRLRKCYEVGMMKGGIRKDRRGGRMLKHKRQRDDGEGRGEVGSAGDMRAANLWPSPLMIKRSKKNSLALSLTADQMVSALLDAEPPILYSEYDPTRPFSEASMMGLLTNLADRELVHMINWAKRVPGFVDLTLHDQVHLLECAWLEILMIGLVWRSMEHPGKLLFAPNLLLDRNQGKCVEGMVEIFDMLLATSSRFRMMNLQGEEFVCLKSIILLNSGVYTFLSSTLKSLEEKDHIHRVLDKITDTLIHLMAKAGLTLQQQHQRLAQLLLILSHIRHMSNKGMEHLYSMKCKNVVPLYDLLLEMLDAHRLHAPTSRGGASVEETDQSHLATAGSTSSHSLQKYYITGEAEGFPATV

In general, logD refers to lipophilicity at a set pH, counting ionised and neutral species. For orientation: solubility means the concentration that dissolves in the medium under given conditions. Lower therefore signals little dissolved substance. With `C[C@@H]1Cc2c(ccc3[nH]ncc23)[C@@H](c2ncc(OCCN3CC(CF)C3)cc2F)N1CC(F)(F)F` [Example 50, (6S,8R)-6-(3-fluoro-5-(2-(3-(fluoromethyl)azetidin-1-yl)ethoxy)pyridin-2-yl)-8-methyl-7-(2,2,2-trifluoroethyl)-6,7,8,9-tetrahydro-3H-pyrazolo[4,3-f]isoquinoline], the logD in data set [1] is 2.8. This compound displayed a solubility at 24 h in data set [2] of 1000 µM (≈ 495 µg/mL). Further, the “Human plasma protein binding (% free)” value in data set [3] is on record as 20 % free. For the same compound, in data set [4], the DC50 is 0.5 nM.
For `CC(C)CN1[C@H](c2c(F)cc(OCCN3CC(CF)C3)cc2F)c2ccc3[nH]ncc3c2C[C@H]1C` [Example 33, (6S,8R)-6-(2,6-difluoro-4-(2-(3-(fluoromethyl)azetidin-1-yl)ethoxy)phenyl)-7-isobutyl-8-methyl-6,7,8,9-tetrahydro-3H-pyrazolo[4,3-f]isoquinoline], the hepatocyte CLint at 1 µM in data set [5] turned out to be 9 µL/min/1e6 cells. Moreover, the DC50 in data set [4] was 0.21 nM.
For `CC(C)CN1[C@H](c2ccc(OCCN3CC(CF)C3)cn2)c2ccc3[nH]ncc3c2C[C@H]1C` [Example 40, (6S,8R)-6-(5-(2-(3-(fluoromethyl)azetidin-1-yl)ethoxy)pyridin-2-yl)-7-isobutyl-8-methyl-6,7,8,9-tetrahydro-3H-pyrazolo[4,3-f]isoquinoline] the same measures were 8 µL/min/1e6 cells and 0.36 nM.
With `CC(C)(F)CN1[C@H](C(F)F)Cc2c(ccc3[nH]ncc23)[C@@]1(C)c1c(F)cc(OCCN2CC(CF)C2)cc1F` [Example 4, (6S,8S)-6-(2,6-difluoro-4-(2-(3-(fluoromethyl)azetidin-1-yl)ethoxy)phenyl)-8-(difluoromethyl)-7-(2-fluoro-2-methylpropyl)-6-methyl-6,7,8,9-tetrahydro-3H-pyrazolo[4,3-f]isoquinoline], the hepatocyte CLint at 1 µM in data set [5] was 10 µL/min/1e6 cells. In addition, the DC50 in data set [4] was 0.16 nM. Further, the “% downregulation (in brackets) in ER down regulation assay” value in data set [4] (>90% unless otherwise stated) is 80%.
Consider `C[C@@H]1Cc2c(ccc3[nH]ncc23)[C@@H](c2c(F)cc(OCCN3CC(CF)C3)cc2F)N1CC(C)(C)F` [Example 1, (6S,8R)-6-(2,6-difluoro-4-(2-(3-(fluoromethyl)azetidin-1-yl)ethoxy)phenyl)-7-(2-fluoro-2-methylpropyl)-8-methyl-6,7,8,9-tetrahydro-3H-pyrazolo[4,3-f]isoquinoline], for which the hepatocyte CLint at 1 µM in data set [5] was 8 µL/min/1e6 cells. For the same compound, the DC50 in data set [4] is 0.097 nM.
In the same order, the values of `C[C@@H]1Cc2c(ccc3[nH]ncc23)[C@@](C)(c2ccc(OCCN3CC(CF)C3)cc2)N1CC1(F)CC1` [Example 30, (6R,8R)-7-((1-fluorocyclopropyl)methyl)-6-(4-(2-(3-(fluoromethyl)azetidin-1-yl)ethoxy)phenyl)-6,8-dimethyl-6,7,8,9-tetrahydro-3H-pyrazolo[4,3-f]isoquinoline] are 13 µL/min/1e6 cells and 0.087 nM.
